Test results published in patent US20030176368A1, “Synthesis of epothilones, intermediates thereto and analogues thereof” (priority 2001, published 2003).
Where two headings read alike, the source gives them in different places.

Experiments:
CCRF-CEM/Taxol = experiment: XTT cytotoxicity assay, taxol-resistant CCRF-CEM/Taxol cells; type: cell-based, human
Procedure: (§1) XTT assay following 72 h inhibition. CCRF-CEM is a human T-cell acute lymphoblastic leukemia cell line. The CCRF-CEM/VBL100, CCRF-CEM/VM1, and CCRF-CEM/Taxol cell lines all overexpress P-glycoprotein and display a multidrug resistance phenotype to MDR-associated oncolytics. (Chou et al. Proc. Natl. Acad. Sci. USA 98:8113, 2001; incorporated herein by reference).
(§2) A typical experiment invovles culturing cells (e.g., CCRF-CEM) at an initial density of 2-5×10^4 cells per ml. They are maintained in a 5% CO2-humidified atmosphere at 37° C. in RPMI medium 1640 (GIBCO/BRL) containing penicillin (100 units/ml), streptomycin (100 μg/ml) (GIBCO/BRL), and 5% heat-inactivated fetal bovine serum. For cells that were grown in suspension (such as CCRF-CEM and its sublines), cytotoxicitiy is measured by using the 2,-3-bis(2-methoxy-4-nitro-5-sulfophenyl)-5 carboxanilide)-2H terazodium hydroxide (XTT)-microculture tetrazonium method in duplicate in 96-well microtiter plates. For both methods, the absorbance of each well is measured with a microplate reader (EL-340, Bio-Tek, Burlington, Vt.). Each run entails six or seven concentrations of the tested drugs. Dose-effect relationship data are analyzed with the median-effect plot.

CCRF-CEM = experiment: XTT cytotoxicity assay, CCRF-CEM cells; type: cell-based, human
Procedure: as §1, §2
(§3) The CCRF-CEM human T cells, acute lymphoblastic leukemic cells, its teniposide-resistant subline (CCRF-CEM/VM1) and vinblastine-resistant subline (CCRF-CEM/VBL100) are obtained from W. T. Beck (University of Illinois, Chicago, Ill.).

CCRF-CEM/VM1 = experiment: XTT cytotoxicity assay, teniposide-resistant CCRF-CEM/VM1 cells; type: cell-based, human; details: Homo sapiens, CCRF-CEM
Procedure: as §1, §2, §3

CCRF-CEM/VBL100 = experiment: XTT cytotoxicity assay, vinblastine-resistant CCRF-CEM/VBL100 cells; type: cell-based, human; details: Homo sapiens, CCRF-CEM
Procedure: as §1, §2, §3

tubulin = experiment: Tubulin binding: formation of microtubules in the presence of the compounds; type: biochemical
Source text: Indeed, the microtubule stabilizing ability closely parallels the observed cytotoxicity data.

[1] = Example 11 Table 2, XTT assay following 72-h inhibition, read-out: In Vitro Cytotoxicities (IC50) CCRF-CEM/VMI
[2] = Homo sapiens, CCRF-CEM, Example 11 Table 2, XTT assay following 72-h inhibition, read-out: In Vitro Cytotoxicities (IC50) CCRF-CEM/TAXOL
[3] = Example 11 Table 2, XTT assay following 72-h inhibition, read-out: In Vitro Cytotoxicities (IC50) CCRF-CEM/VBL100
[4] = Homo sapiens, CCRF-CEM, Example 11 Table 2, XTT assay following 72-h inhibition, read-out: In Vitro Cytotoxicities (IC50) CCRF-CEM

Question: Which “activity in CCRF-CEM cell lines resistant to Taxol” value (CCRF-CEM/Taxol; Example 12, in words) does the source give for `C/C(=C\c1csc(C)n1)[C@@H]1C/C=C(/CF)CCC[C@H](C)[C@H](O)[C@@H](C)C(=O)C(C)(C)[C@@H](O)CC(=O)O1` [Compound 26F-EpoD] here?
Answer: Its value is “demonstrated activity”.

Question: And the IC50 (CCRF-CEM/Taxol; Example 12, read-out: activity for CCRF-CEM/Taxol resistant cell lines)?
Answer: The IC50 was roughly 11 nM.

Question: What about the “activity in CCRF-CEM cell lines” value (CCRF-CEM; Example 12, in words) of the same molecule?
Answer: The value was “demonstrated activity”.

Question: And the IC50 (CCRF-CEM; Example 12, read-out: activity for CCRF-CEM cell lines)?
Answer: Its IC50 is roughly 1.5 nM.

Question: With `C/C1=C/C[C@@H](/C(C)=C/c2csc(C)n2)OC(=O)C[C@H](O)C(C)(C)C(=O)[C@H](C)[C@@H](O)[C@@H](C)CCC1` [dEpoB, 12,13-desoxyepothilone B, reference compound] as the molecule, how does the IC50 (CCRF-CEM/VM1; 72 h, read-out: In Vitro Cytotoxicities (IC50) CCRF-CEM/VMI) read?
Answer: Its IC50 is 16 nM.

Question: And the IC50 (CCRF-CEM/VM1; 72 h, read-out: In vitro Cytotoxicities (IC50) C/VM1)?
Answer: Its IC50 is 16 nM.

Question: And the IC50 (CCRF-CEM/VM1; 72 h, read-out: In vitro Cytotoxicities (IC50) CCRF-CEM/VM1)?
Answer: The IC50 was 16 nM.

Question: What about the IC50 (CCRF-CEM/Taxol; Homo sapiens, CCRF-CEM, 72 h, read-out: In Vitro Cytotoxicities (IC50) CCRF-CEM/TAXOL) of the same molecule?
Answer: The IC50 was 7 nM.

Question: And the IC50 (CCRF-CEM/Taxol; Homo sapiens, CCRF-CEM, 72 h, read-out: In vitro Cytotoxicities (IC50) C/Taxol)?
Answer: Its IC50 is 7 nM.

Question: What about the IC50 (CCRF-CEM/Taxol; Homo sapiens, CCRF-CEM, 72 h, read-out: In vitro Cytotoxicities (IC50) CCRF-CEM/Taxol) of the same molecule?
Answer: Its IC50 is 7 nM.

Question: And the IC50 (CCRF-CEM/VBL100; 72 h, read-out: In Vitro Cytotoxicities (IC50) CCRF-CEM/VBL100)?
Answer: Its IC50 is 15 nM.

Question: What about the IC50 (CCRF-CEM/VBL100; 72 h, read-out: In vitro Cytotoxicities (IC50) C/VBL100) of the same molecule?
Answer: Its IC50 is 15 nM.

Question: And the IC50 (CCRF-CEM/VBL100; 72 h, read-out: In vitro Cytotoxicities (IC50) CCRF-CEM/VBL100)?
Answer: Its IC50 is 15 nM.

Question: And the “% Tubulin Binding” value (tubulin; Example 5 Table 1)?
Answer: Its value is 100%.

Question: And the “% Tubulin Binding” value (tubulin; Microtubules formed in the presence of dEpoB is defined as 100%)?
Answer: The value was 100%.

Question: And the IC50 (CCRF-CEM; Homo sapiens, CCRF-CEM, 72 h, read-out: In Vitro Cytotoxicities (IC50) CCRF-CEM)?
Answer: Its IC50 is 11 nM.

Question: And the IC50 (CCRF-CEM; Homo sapiens, CCRF-CEM, 72 h, read-out: In vitro Cytotoxicities (IC50) CCRF-CEM)?
Answer: Its IC50 is 11 nM.

Question: And the IC50 (CCRF-CEM; Homo sapiens, CCRF-CEM, 72 h, read-out: In vitro Cytotoxicities (IC50) CCRF-CEM(C))?
Answer: Its IC50 is 11 nM.

Question: For `C/C1=C/C[C@@H](/C(C)=C/c2csc(C)n2)OC(=O)C[C@H](O)C(C)(C)C(=O)[C@H](C)[C@@H](O)[C@@H](C)CC2CC12` (stereo partly drawn) [15 (cyclopropyl)], which IC50 (CCRF-CEM/VBL100; Example 5 Table 1, 72 h inhibition, read-out: In vitro Cytotoxicities (IC50) C/VBL100) is on record?
Answer: Its IC50 is 141 nM.

Question: What about the “% Tubulin Binding” value (tubulin; Example 5 Table 1) of the same molecule?
Answer: Its value is 84%.

Question: What about the IC50 (CCRF-CEM; Homo sapiens, CCRF-CEM, Example 5 Table 1, 72 h inhibition, read-out: In vitro Cytotoxicities (IC50) CCRF-CEM(C)) of the same molecule?
Answer: Its IC50 is 77 nM.

Question: With `CC[C@]1(O)C[C@@H]2CN(CCc3c([nH]c4ccccc34)[C@@](C(=O)OC)(c3cc4c(cc3OC)N(C)[C@H]3[C@@](O)(C(=O)OC)[C@H](OC(C)=O)[C@]5(CC)C=CCN6CC[C@]43[C@@H]65)C2)C1` [vinblastine, reference compound] as the molecule, how does the IC50 (CCRF-CEM/VM1; [1]) read?
Answer: Its IC50 is 1.4 nM.

Question: What about the IC50 (CCRF-CEM/Taxol; [2]) of the same molecule?
Answer: Its IC50 is 18 nM.

Question: And the IC50 (CCRF-CEM/VBL100; [3])?
Answer: The IC50 was 122 nM.

Question: What about the IC50 (CCRF-CEM; [4]) of the same molecule?
Answer: Its IC50 is 0.8 nM.

Question: How did the IC50 (CCRF-CEM/Taxol; Homo sapiens, CCRF-CEM, Example 9 table, read-out: Cell Growth Inhibition (IC50) CCRF-CEM/taxol) turn out when `CC1=C/C[C@@H](/C(C)=C/c2coc(C)n2)OC(=O)C[C@H](O)C(C)(C)C(=O)[C@H](C)[C@@H](O)[C@@H](C)C\C=C\1` [19-oxa epothilone 490] was run?
Answer: Its IC50 is 40 nM.

Question: And the IC50 (CCRF-CEM/VBL100; Example 9 table, read-out: Cell Growth Inhibition (IC50) CCRF-CEM/VBL)?
Answer: The IC50 was 60 nM.

Question: What about the IC50 (CCRF-CEM; Homo sapiens, CCRF-CEM, Example 9 table, read-out: Cell Growth Inhibition (IC50) CCRF-CEM) of the same molecule?
Answer: Its IC50 is 15 nM.

Question: What does the source list for `CC(=O)O[C@H]1C(=O)[C@@]2(C)[C@H]([C@H](OC(=O)c3ccccc3)[C@]3(O)C[C@H](OC(=O)[C@H](O)[C@@H](NC(=O)c4ccccc4)c4ccccc4)C(C)=C1C3(C)C)[C@]1(OC(C)=O)CO[C@@H]1C[C@@H]2O` [Taxol, paclitaxel, reference compound]?
Answer: IC50 (CCRF-CEM/VM1; [1]): 3 nM; IC50 (CCRF-CEM/Taxol; [2]): 81 nM; IC50 (CCRF-CEM/VBL100; [3]): 827 nM; IC50 (CCRF-CEM; [4]): 2.1 nM

Question: How did the “% Tubulin Binding” value (tubulin; Example 5 Table 1) turn out when “10,11-dehydro-14,15-[18]desoxyepothilone B [[18]ddEpoB]” was run?
Answer: Its value is 51%.
